Measurements: PubChem BioAssay AID1918930 (Molecular Pharmacology Branch, DTP, NCI, 2023)

System: 233499-124-R-J3-PDC complex spheroid viability, % test/control
Assay: Anticancer human tumor 233499-124-R-J3-PDC patient-derived colon adenocarcinoma cell line growth inhibition
Settings: for IC50: curve of first compound; for viability, T/C: stronger effect = lower value
Procedure, shortened: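 Complex spheroids of tumor cells with HUVEC and human MSCs, exposed to iadademstat combined with other agents. Each agent tested in half-log steps from near clinical Cmax (else 10 microM top), DMSO ≤0.25%.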

[1] = second compound 0.1 µM, first compound 0.00949 µM
[2] = second compound 0.1 µM, first compound 0.03 µM
[3] = second compound 0.1 µM, first compound 0.0949 µM
[4] = second compound 0.1 µM, first compound 0.3 µM
[5] = second compound 0.1 µM, first compound 0.949 µM
[6] = second compound 0.1 µM, first compound 3 µM
[7] = second compound 0.316 µM, first compound 0.00949 µM
[8] = second compound 0.316 µM, first compound 0.03 µM
[9] = second compound 0.316 µM, first compound 0.0949 µM
[10] = second compound 0.316 µM, first compound 0.3 µM
[11] = second compound 0.316 µM, first compound 0.949 µM
[12] = second compound 0.316 µM, first compound 3 µM
[13] = second compound 1 µM, first compound 0.00949 µM
[14] = second compound 1 µM, first compound 0.03 µM
[15] = second compound 1 µM, first compound 0.0949 µM
[16] = second compound 1 µM, first compound 0.3 µM
[17] = second compound 1 µM, first compound 0.949 µM
[18] = second compound 1 µM, first compound 3 µM
[19] = second compound 3.16 µM, first compound 0.00949 µM
[20] = second compound 3.16 µM, first compound 0.03 µM
[21] = second compound 3.16 µM, first compound 0.0949 µM
[22] = second compound 3.16 µM, first compound 0.3 µM
[23] = second compound 3.16 µM, first compound 0.949 µM
[24] = second compound 3.16 µM, first compound 3 µM
[25] = second compound 10 µM, first compound 0.00949 µM
[26] = second compound 10 µM, first compound 0.03 µM
[27] = second compound 10 µM, first compound 0.0949 µM
[28] = second compound 10 µM, first compound 0.3 µM
[29] = second compound 10 µM, first compound 0.949 µM
[30] = second compound 10 µM, first compound 3 µM
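Also: spheroids exposed to agents for one week before readout.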

## Cn1ncnc1C1c2n[nH]c(=O)c3cc(F)cc(c23)NC1c1ccc(F)cc1 (stereo not given) + NC1CCC(NC2CC2c2ccccc2)CC1
Second compound 0.1 µM
  IC50: > 100 nM
Second compound 0.316 µM
  IC50: > 100 nM
Second compound 1 µM
  IC50: > 100 nM
Second compound 3.16 µM
  IC50: > 100 nM
Second compound 10 µM
  IC50: > 100 nM
Second compound 0.1 µM, first compound 0.000316 µM
  viability, T/C: 103%
Second compound 0.1 µM, first compound 0.001 µM
  viability, T/C: 99.2%
Second compound 0.1 µM, first compound 0.00316 µM
  viability, T/C: 94.4%
Second compound 0.1 µM, first compound 0.01 µM
  viability, T/C: 104%
Second compound 0.1 µM, first compound 0.0316 µM
  viability, T/C: 96.3%
Second compound 0.1 µM, first compound 0.1 µM
  viability, T/C: 77.8%
Second compound 0.316 µM, first compound 0.000316 µM
  viability, T/C: 113%
Second compound 0.316 µM, first compound 0.001 µM
  viability, T/C: 110%
Second compound 0.316 µM, first compound 0.00316 µM
  viability, T/C: 100%
Second compound 0.316 µM, first compound 0.01 µM
  viability, T/C: 102%
Second compound 0.316 µM, first compound 0.0316 µM
  viability, T/C: 106%
Second compound 0.316 µM, first compound 0.1 µM
  viability, T/C: 110%
Second compound 1 µM, first compound 0.000316 µM
  viability, T/C: 83.8%
Second compound 1 µM, first compound 0.001 µM
  viability, T/C: 87.1%
Second compound 1 µM, first compound 0.00316 µM
  viability, T/C: 78.1%
Second compound 1 µM, first compound 0.01 µM
  viability, T/C: 87.5%
Second compound 1 µM, first compound 0.0316 µM
  viability, T/C: 70.7%
Second compound 1 µM, first compound 0.1 µM
  viability, T/C: 97%
Second compound 3.16 µM, first compound 0.000316 µM
  viability, T/C: 83%
Second compound 3.16 µM, first compound 0.001 µM
  viability, T/C: 85.7%
Second compound 3.16 µM, first compound 0.00316 µM
  viability, T/C: 83.6%
Second compound 3.16 µM, first compound 0.01 µM
  viability, T/C: 81.6%
Second compound 3.16 µM, first compound 0.0316 µM
  viability, T/C: 76.1%
Second compound 3.16 µM, first compound 0.1 µM
  viability, T/C: 79.1%
Second compound 10 µM, first compound 0.000316 µM
  viability, T/C: 75.7%
Second compound 10 µM, first compound 0.001 µM
  viability, T/C: 73.4%
Second compound 10 µM, first compound 0.00316 µM
  viability, T/C: 73.4%
Second compound 10 µM, first compound 0.01 µM
  viability, T/C: 80.9%
Second compound 10 µM, first compound 0.0316 µM
  viability, T/C: 65.1%
Second compound 10 µM, first compound 0.1 µM
  viability, T/C: 68.5%

## NS(=O)(=O)OCC1CC(n2ccc3c(NC4CCc5ccccc54)ncnc32)CC1O (stereo not given) + NC1CCC(NC2CC2c2ccccc2)CC1
Second compound 0.1 µM
  IC50: 108 nM
Second compound 0.316 µM
  IC50: 88.8 nM
Second compound 1 µM
  IC50: 47.5 nM
Second compound 3.16 µM
  IC50: 49.6 nM
Second compound 10 µM
  IC50: 54.1 nM
[1]
  viability, T/C: 106%
[2]
  viability, T/C: 95.7%
[3]
  viability, T/C: 55.9%
[4]
  viability, T/C: 9.71%
[5]
  viability, T/C: 11.5%
[6]
  viability, T/C: 9.68%
[7]
  viability, T/C: 90.8%
[8]
  viability, T/C: 70%
[9]
  viability, T/C: 53.4%
[10]
  viability, T/C: 9.15%
[11]
  viability, T/C: 6.44%
[12]
  viability, T/C: 7.69%
[13]
  viability, T/C: 90.7%
[14]
  viability, T/C: 55.9%
[15]
  viability, T/C: 43.2%
[16]
  viability, T/C: 12%
[17]
  viability, T/C: 11.3%
[18]
  viability, T/C: 6.96%
[19]
  viability, T/C: 102%
[20]
  viability, T/C: 62.9%
[21]
  viability, T/C: 34.5%
[22]
  viability, T/C: 10.7%
[23]
  viability, T/C: 7.04%
[24]
  viability, T/C: 1.91%
[25]
  viability, T/C: 89.9%
[26]
  viability, T/C: 66.2%
[27]
  viability, T/C: 33.4%
[28]
  viability, T/C: 19%
[29]
  viability, T/C: 5.43%
[30]
  viability, T/C: 3.7%

## O=C(C=Cc1cccc(S(=O)(=O)Nc2ccccc2)c1)NO + NC1CCC(NC2CC2c2ccccc2)CC1
Second compound 0.1 µM
  IC50: > 3000 nM
Second compound 0.316 µM
  IC50: > 3000 nM
Second compound 1 µM
  IC50: 3000 nM
Second compound 3.16 µM
  IC50: > 3000 nM
Second compound 10 µM
  IC50: 3000 nM
[1]
  viability, T/C: 105%
[2]
  viability, T/C: 115%
[3]
  viability, T/C: 122%
[4]
  viability, T/C: 134%
[5]
  viability, T/C: 51.9%
[6]
  viability, T/C: 110%
[7]
  viability, T/C: 101%
[8]
  viability, T/C: 108%
[9]
  viability, T/C: 128%
[10]
  viability, T/C: 120%
[11]
  viability, T/C: 47.7%
[12]
  viability, T/C: 106%
[13]
  viability, T/C: 81.3%
[14]
  viability, T/C: 105%
[15]
  viability, T/C: 108%
[16]
  viability, T/C: 109%
[17]
  viability, T/C: 44.7%
[18]
  viability, T/C: 78.8%
[19]
  viability, T/C: 101%
[20]
  viability, T/C: 101%
[21]
  viability, T/C: 102%
[22]
  viability, T/C: 116%
[23]
  viability, T/C: 38.5%
[24]
  viability, T/C: 89.3%
[25]
  viability, T/C: 79.2%
[26]
  viability, T/C: 85.5%
[27]
  viability, T/C: 78.8%
[28]
  viability, T/C: 117%
[29]
  viability, T/C: 32.9%
[30]
  viability, T/C: 76.3%
